Results reported in PubChem BioAssay (NCI).
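Compound exposure: 48 hours, 5 concentrations, 96-well plates. GI50 = concentration required for 50% inhibition of growth. TGI denotes the concentration required for complete inhibition of growth.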

Legend:
Assay in all cases: DTP human tumour cell line panel, 48 h
[1] = system: 786-0 renal
[2] = system: A498 renal
[3] = system: A549 NSCLC
[4] = system: ACHN renal
[5] = system: BT-549 breast
[6] = system: CAKI-1 renal
[7] = system: CCRF-CEM leukemia
[8] = system: COLO 205 colon
[9] = system: DU-145 prostate
[10] = system: EKVX NSCLC
[11] = system: HCC-2998 colon
[12] = system: HCT-116 colon
[13] = system: HCT-15 colon
[14] = system: HOP-62 NSCLC
[15] = system: HOP-92 NSCLC
[16] = system: HS 578T breast
[17] = system: HT29 colon
[18] = system: IGROV1 ovarian
[19] = system: K-562 leukemia
[20] = system: KM12 colon
[21] = system: LOX IMVI melanoma
[22] = system: M14 melanoma
[23] = system: MALME-3M melanoma
[24] = system: MCF7 breast
[25] = system: MDA-MB-231 breast
[26] = system: MDA-MB-435
[27] = system: MOLT-4 leukemia
[28] = system: NCI-H226 lung
[29] = system: NCI-H23 lung
[30] = system: NCI-H460 lung
[31] = system: NCI/ADR-RES ovarian
[32] = system: OVCAR-3 ovarian
[33] = system: OVCAR-4 ovarian
[34] = system: OVCAR-5 ovarian
[35] = system: OVCAR-8 ovarian
[36] = system: PC-3 prostate
[37] = system: RPMI-8226 leukemia
[38] = system: RXF 393 renal
[39] = system: SF-268 CNS
[40] = system: SF-295 CNS
[41] = system: SF-539 CNS
[42] = system: SK-MEL-2 melanoma
[43] = system: SK-MEL-28 melanoma
[44] = system: SK-MEL-5 melanoma
[45] = system: SK-OV-3 ovarian
[46] = system: SN12C renal
[47] = system: SNB-19 CNS
[48] = system: SNB-75 CNS
[49] = system: SR leukemia
[50] = system: SW-620 colon
[51] = system: T-47D breast
[52] = system: TK-10 renal
[53] = system: U251 CNS
[54] = system: UACC-257 melanoma
[55] = system: UACC-62 melanoma
[56] = system: UO-31 renal

`COC(=O)[C@]12CC[C@@H](C)[C@H](C)[C@@H]1C1=CC[C@@H]3[C@@]4(C)C(C=O)=C[C@@](C)(CO)[C@@H]4[C@H](O)C[C@@]3(C)[C@]1(C)CC2` showed a GI50 [1] of 2.97 µM, a TGI [1] of 11.1 µM and a GI50 [2] of 6.37 µM. It also gave a TGI [2] of 19.4 µM, a GI50 [3] of 4.15 µM and a TGI [3] of 14.6 µM. It also gave a GI50 [4] of 3.47 µM, a TGI [4] of 12.2 µM and a GI50 [5] of 3.27 µM. The TGI [5] was 14.1 µM, the GI50 [6] was 3.71 µM and the TGI [6] was 16.8 µM. It also gave a GI50 [7] of 3.73 µM, a TGI [7] of 13.7 µM and a GI50 [8] of 2.17 µM. For the same molecule, the TGI [8] was 4.93 µM, the GI50 [9] was 4.77 µM and the TGI [9] was 16.5 µM. The GI50 [10] was 4.03 µM, the TGI [10] was 16 µM and the GI50 [11] was 3.13 µM. It also gave a TGI [11] of 9.45 µM, a GI50 [12] of 2.76 µM and a TGI [12] of 8.97 µM. It also gave a GI50 [13] of 2.11 µM, a TGI [13] of 6 µM and a GI50 [14] of 13.8 µM. It also gave a TGI [14] of 29.6 µM, a GI50 [15] of 6.18 µM and a TGI [15] of 20.9 µM. For the same molecule, the GI50 [16] was 4.82 µM, the TGI [16] was 26.4 µM and the GI50 [17] was 2.44 µM. It also gave a TGI [17] of 7.54 µM, a GI50 [18] of 4.25 µM and a TGI [18] of 21 µM. It also gave a GI50 [19] of 3.86 µM, a TGI [19] of 15.5 µM and a GI50 [20] of 4.02 µM. It also gave a TGI [20] of 15.3 µM, a GI50 [21] of 2.77 µM and a TGI [21] of 11.2 µM. For the same molecule, the GI50 [22] was 4.13 µM, the TGI [22] was 17.8 µM and the GI50 [23] was 2.62 µM. It also gave a TGI [23] of 10.4 µM, a GI50 [24] of 2.44 µM and a TGI [24] of 10.3 µM. The GI50 [25] was 7.86 µM, the TGI [25] was 22.3 µM and the GI50 [26] was 3.29 µM. It also gave a TGI [26] of 13.4 µM, a GI50 [27] of 2.79 µM and a TGI [27] of 8.73 µM. For the same molecule, the GI50 [28] was 13.9 µM, the TGI [28] was 46.9 µM and the GI50 [29] was 2.97 µM. For the same molecule, the TGI [29] was 12.2 µM, the GI50 [30] was 3.03 µM and the TGI [30] was 9.6 µM. It also gave a GI50 [31] of 4.12 µM, a TGI [31] of 34.6 µM and a GI50 [32] of 2.54 µM. For the same molecule, the TGI [32] was 7.78 µM, the GI50 [33] was 4.17 µM and the TGI [33] was 16.8 µM. It also gave a GI50 [34] of 3.47 µM, a TGI [34] of 17.9 µM and a GI50 [35] of 3.51 µM. The TGI [35] was 14.4 µM, the GI50 [36] was 4.14 µM and the TGI [36] was 18.5 µM. It also gave a GI50 [37] of 2.44 µM, a TGI [37] of 7.74 µM and a GI50 [38] of 2.64 µM. For the same molecule, the TGI [38] was 8.75 µM, the GI50 [39] was 5.16 µM and the TGI [39] was 20.4 µM. It also gave a GI50 [40] of 3.94 µM, a TGI [40] of 16.5 µM and a GI50 [41] of 10.1 µM. For the same molecule, the TGI [41] was 22.8 µM, the GI50 [42] was 7.26 µM and the TGI [42] was 22.5 µM. The GI50 [43] was 3.33 µM, the TGI [43] was 12.4 µM and the GI50 [44] was 5.8 µM. It also gave a TGI [44] of 18.4 µM, a GI50 [45] of 17 µM and a TGI [45] of 31.6 µM. It also gave a GI50 [46] of 4.85 µM, a TGI [46] of 17.3 µM and a GI50 [47] of 7.69 µM. For the same molecule, the TGI [47] was 21.7 µM, the GI50 [48] was 2.72 µM and the TGI [48] was 19.3 µM. For the same molecule, the GI50 [49] was 1.92 µM, the TGI [49] was 6.74 µM and the GI50 [50] was 4.23 µM. It also gave a TGI [50] of 15.8 µM, a GI50 [51] of 2.11 µM and a TGI [51] of 13.2 µM. It also gave a GI50 [52] of 2.49 µM, a TGI [52] of 9.42 µM and a GI50 [53] of 3.83 µM. The TGI [53] was 13.8 µM, the GI50 [54] was 3.11 µM and the TGI [54] was 13.1 µM. The GI50 [55] was 3.71 µM, the TGI [55] was 14.8 µM and the GI50 [56] was 2.28 µM. For the same molecule, the TGI [56] was 12.2 µM.
